In patent US8940722B2, “Compounds for modulation of orphan nuclear receptor RAR-related orphan receptor-gamma (RORγ, NR1F3) activity and for the treatment of chronic inflammatory and autoimmune disease” (Phenex Pharmaceuticals AG, priority 2010, dated 2015) one finds IC50 data, which are given here for 51 compounds.

SMILES strings stand for the structures. A value given as a limit tells only on which side of the number the result lay.

In general, IC50 refers to the concentration that inhibits the measured activity by half.

The experiment deals with T1, RORγ ligand binding domain (LBD) (Homo sapiens, UniProt P51449).
T1 construct: made in house; host or cells: E. coli BL-21 (BL3), vector pDEST15
T1 sequence (P51449 269-508 limits assumed): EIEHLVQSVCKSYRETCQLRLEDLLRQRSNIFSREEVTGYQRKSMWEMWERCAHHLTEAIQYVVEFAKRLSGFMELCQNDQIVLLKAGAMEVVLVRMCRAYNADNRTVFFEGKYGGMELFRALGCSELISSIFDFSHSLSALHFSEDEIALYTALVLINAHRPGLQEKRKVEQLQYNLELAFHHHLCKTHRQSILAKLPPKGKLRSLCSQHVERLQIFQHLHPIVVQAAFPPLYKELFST
Briefly: TR-FRET Activity Assay (RORγ-LBD / coactivator peptide interaction). It is filed as biochemical. Particulars: Table 2; read-out: RORγ activity in the TR-FRET Activity Assay (IC50 FRET), Group. From the text:
This method measures the ability of putative ligands to modulate the interaction between the purified bacterial expressed RORγ ligand binding domain (LBD) and synthetic N-terminally biotinylated peptides which are derived from nuclear receptor coactivator proteins such as but not limited to SRC1 (NcoA1), SRC2 (NcoA2, TIF2), SRC3 (NcoA3), PGC1α, PGC1β, CBP, GRIP1, TRAP220, RIP140.
The ligand-binding domain (LBD) of RORγ was expressed as fusion protein with GST in […] cells using the vector pDEST15. Cells were lysed by lysozyme-treatment and sonication, and the fusion proteins purified over glutathione sepharose (Pharmacia) according to the manufacturers instructions. For screening of compounds for their influence on the RORγ-peptide interaction, the LANCE technology (Perkin Elmer) was applied. This method relies on the binding dependent energy transfer from a donor to an acceptor fluorophor attached to the binding partner of interest. For ease of handling and reduction of background from compound fluorescence LANCE technology makes use of generic fluorophore labels and time resolved detection assays were done in a final volume of 25 μL in a 384 well plate, in a Tris-based buffer system (20 mM Tris-HCl pH6.8; 60 mM KCl, 1 mM DTT; 5 mM MgCl2; 35 ng/μL BSA), containing 20-60 ng/well recombinantly expressed RORγ-LBD fused to GST, 200-600 nM N-terminally biotinylated peptide, 200 ng/well Streptavidin-xIAPC conjugate (Prozyme) and 6-10 ng/well Eu W1024—antiGST (Perkin Elmer). DMSO content of the samples was kept at 1%.
After generation of the Tris-based buffer system, the potentially RORγ modulating ligands were diluted. […] The LANCE signal was detected by a Perkin Elmer EnVision™ Multilabel Counter. The results were visualized by plotting the ratio between the emitted light at 665 nm and 615 nm. […] Ligands that promote the complex formation induce a concentration-dependent increase in time-resolved fluorescent signal.
To assess the antagonistic potential of the compounds, IC50 values were determined using a Ligand Sensing Assay based on Time-resolved Fluorescence Energy Transfer (TR-FRET) as described above. The normalised TR-FRET assay values, using the following equation: 1000*665 nm measurement value/615 nm measurement value, were transferred to the program GraphPad Prism to generate graphs and dose response curves using the following equation: • Equation: Sigmoidal dose-response (variable slope) Y=Bottom+(Top−Bottom)/(1+10^((Log EC50−X)*HillSlope))
This is identical to the “four parameter logistic equation”. The IC50 values are calculated using this equation.
Turning to `COc1ccccc1S(=O)(=O)N1Cc2c(C#N)cccc2COCC1Cc1ccccc1` (stereo not drawn) [5/2], the IC50 is greater than 2000 nM.

With `COc1cccc2c1COCC(Cc1ccccc1)N(S(=O)(=O)c1cccc3cccnc13)C2` (stereo not drawn) [1/40], the IC50 was less than 500 nM.

`O=S(=O)(c1cc(F)ccc1OCCN1CCOCC1)N1Cc2ccccc2COCC1Cc1ccccc1` (stereo not drawn) [Preparative Example 11]: the IC50 is greater than 2000 nM.

Regarding `O=S(=O)(c1cccc2cccnc12)N1Cc2ccccc2CCCC1Cc1ccccc1` (stereo not drawn) [compound 30], the IC50 was 500 to 2000 nM.

On to `O=S(=O)(c1ccccc1OC(F)(F)F)N1Cc2nncn2CCC[C@H]1Cc1ccccc1` [31/1], for which the IC50 fell in the range of 500 to 2000 nM.

Turning to `O=S(=O)(c1ccccc1F)N1Cc2ccccc2COCC1Cc1ccccc1` (stereo not drawn) [1/14], the IC50 is less than 500 nM.

Take `COc1ccccc1S(=O)(=O)N1Cc2cc(F)ccc2COCC1Cc1ccccc1` (stereo not drawn) [1/33]: the IC50 was greater than 2000 nM.

In the case of `COc1ccccc1S(=O)(=O)N1Cc2ccccc2COCC1Cc1cccc(C#N)c1` (stereo not drawn) [5/3], the IC50 is less than 500 nM.

For `COc1ccccc1S(=O)(=O)N1Cc2ccccc2COCC1CC(C)C` (stereo not drawn) [1/41], the IC50 fell in the range of 500 to 2000 nM.

Take `COC(=O)c1ccccc1S(=O)(=O)N1Cc2ccccc2COCC1Cc1ccccc1` (stereo not drawn) [1/39]: the IC50 was 500 to 2000 nM.

Take `Cn1cnc(S(=O)(=O)N2Cc3ccccc3COCC2Cc2ccccc2)c1Cl` (stereo not drawn) [1/31]: the IC50 is greater than 2000 nM.

Regarding `COc1ccccc1S(=O)(=O)N1Cc2ccccc2COCC1Cc1ccc(C#N)cc1` (stereo not drawn) [5/4], the IC50 is greater than 2000 nM.

Consider `COc1ccc(Cl)cc1S(=O)(=O)N1Cc2ccccc2COCC1Cc1ccccc1` (stereo not drawn) [1/6], for which the IC50 is less than 500 nM.

Consider `CC(C)(O)C[C@@H]1COCc2ccccc2CN1S(=O)(=O)c1cccc2cccnc12` [Preparative Example 22, (R)-2-Methyl-1-(5-(quinolin-8-ylsulfonyl)-3,4,5,6-tetrahydro-1H-benzo[f][1,4]oxazocin-4-yl)propan-2-ol], for which the IC50 is greater than 2000 nM.

Take `Cc1ccc(Cl)cc1S(=O)(=O)N1Cc2ccccc2COCC1Cc1ccccc1` (stereo not drawn) [1/20]: the IC50 was in the range of 500 to 2000 nM.

Take `O=S(=O)(c1cccc2cccnc12)N1Cc2ccccc2COC[C@H]1COCc1ccccc1` [16/1]: the IC50 was in the range of 500 to 2000 nM.

In the case of `COc1ccccc1S(=O)(=O)N1Cc2ccccc2COCC1Cc1cccc(-c2cncnc2)c1` (stereo not drawn) [5/5], the IC50 was greater than 2000 nM.

With `COc1ccc(S(=O)(=O)N2Cc3ccccc3COCC2Cc2ccccc2)cc1` (stereo not drawn) [1/29], the IC50 is greater than 2000 nM.

Turning to `COc1ccccc1S(=O)(=O)N1Cc2ccccc2CS(=O)(=O)CC1Cc1ccccc1` (stereo not drawn) [compound 29], the IC50 is greater than 2000 nM.

Regarding `O=S(=O)(c1cccc2nsnc12)N1Cc2ccccc2COCC1Cc1ccccc1` (stereo not drawn) [1/12], the IC50 is less than 500 nM.

In the case of `COc1ccccc1S(=O)(=O)N1Cc2cccc(OC)c2COCC1Cc1ccccc1` (stereo not drawn) [1/36], the IC50 lay within 500 to 2000 nM.

With `Cc1nnc(C[C@@H]2COCc3ccccc3CN2S(=O)(=O)c2cccc3cccnc23)o1` [Preparative Example 27, (R)-4-((5-Methyl-1,3,4-oxadiazol-2-yl)methyl)-5-(quinolin-8-ylsulfonyl)-3,4,5,6-tetrahydro-1H-benzo[f][1,4]oxazocine], the IC50 was greater than 2000 nM.

Turning to `N#Cc1ccc(Cl)cc1S(=O)(=O)N1Cc2ccccc2COCC1Cc1ccccc1` (stereo not drawn) [1/19], the IC50 is less than 500 nM.

For `Cc1c(F)cccc1S(=O)(=O)N1Cc2ccccc2COCC1Cc1ccccc1` (stereo not drawn) [1/17], the IC50 lay within 500 to 2000 nM.

Turning to `CC(C)(C)OC[C@@H]1COCc2ncccc2CN1S(=O)(=O)c1c(F)cccc1F` [6/4], the IC50 is greater than 2000 nM.

For `O=S(=O)(c1cccc2cccnc12)N1Cc2ccccc2COC[C@H]1CN1CCOCC1` [17/4], the IC50 is less than 500 nM.

As to `C=CC[C@@H]1COCc2ccccc2CN1S(=O)(=O)c1cccc2cccnc12` [Preparative Example 18, (R)-4-Allyl-5-(quinolin-8-ylsulfonyl)-3,4,5,6-tetrahydro-1H-benzo[f][1,4]oxazocine], the IC50 fell in the range of 500 to 2000 nM.

`CC(C)(C)OC[C@@H]1COCc2ncccc2CN1S(=O)(=O)c1ccccc1OC(F)(F)F` [6/2]: the IC50 was less than 500 nM.

In the case of `CC(C)(C)OC[C@@H]1COCc2ncccc2CN1S(=O)(=O)c1cccc2c1OCC2` [6/5], the IC50 lay within 500 to 2000 nM.

As to `Cc1ccc2nsnc2c1S(=O)(=O)N1Cc2ccccc2COCC1Cc1ccccc1` (stereo not drawn) [1/13], the IC50 lay in the range of 500 to 2000 nM.

For `O=S(=O)(c1cccc2cccnc12)N1Cc2cccc(O)c2COCC1Cc1ccccc1` (stereo not drawn) [compound 13], the IC50 was greater than 2000 nM.

Take `COc1ccccc1S(=O)(=O)N1Cc2ccc(F)cc2COCC1Cc1ccccc1` (stereo not drawn) [1/35]: the IC50 is greater than 2000 nM.

On to `CC(C)(C)OC[C@@H]1COCc2ccccc2CN1S(=O)(=O)c1cccc2cccnc12` [Preparative Example 14, (S)-4-(tert-Butoxymethyl)-5-(quinolin-8-ylsulfonyl)-3,4,5,6-tetrahydro-1H-benzo[f][1,4]oxazocine], for which the IC50 was less than 500 nM.

Consider `O=S(=O)(c1cc(C(F)(F)F)ccc1F)N1Cc2ccccc2COCC1Cc1ccccc1` (stereo not drawn) [1/24], for which the IC50 is less than 500 nM.

Turning to `CN1Cc2ccccc2CN(S(=O)(=O)c2cccc3cccnc23)[C@H](Cc2ccccc2)C1=O` [compound 9], the IC50 is greater than 2000 nM.

Consider `COc1ccccc1S(=O)(=O)N1Cc2ccccc2CN(C)CC1Cc1ccccc1` (stereo not drawn) [Preparative Example 2, 3-Benzyl-2-(2-methoxyphenylsulfonyl)-5-methyl-1,2,3,4,5,6-hexahydrobenzo-[f][1,4]-diazocine], for which the IC50 was 500 to 2000 nM.

On to `CCOc1ccc(F)cc1S(=O)(=O)N1Cc2cccnc2COC[C@H]1COC(C)(C)C` [6/3], for which the IC50 was 500 to 2000 nM.

As for `Cc1nc(S(=O)(=O)N2Cc3ccccc3COCC2Cc2ccccc2)cn1C` (stereo not drawn) [1/30], the IC50 is greater than 2000 nM.

Take `O=S(=O)(c1cccc2cccnc12)N1Cc2cccnc2COC[C@H]1Cc1ccccc1` [compound 6]: the IC50 was less than 500 nM.

As to `O=S(=O)(c1cc(Cl)sc1Cl)N1Cc2ccccc2COCC1Cc1ccccc1` (stereo not drawn) [1/27], the IC50 was greater than 2000 nM.

For the compound `O=S(=O)(c1cccc2cccnc12)N1Cc2ccccc2COC[C@H]1Cn1cccn1` [Preparative Example 17, (R)-4-((1H-Pyrazol-1-yl)methyl)-5-(quinolin-8-ylsulfonyl)-3,4,5,6-tetrahydro-1H-benzo[f][1,4]oxazocine], the IC50 is greater than 2000 nM.

Consider `CCC(C)CC1COCc2ccccc2CN1S(=O)(=O)c1cccc2cccnc12` (stereo not drawn) [1/43], for which the IC50 is less than 500 nM.

Regarding `O=S(=O)(c1ccccc1OC(F)(F)F)N1Cc2nnc(C(F)(F)F)n2CCC[C@H]1Cc1ccccc1` [Preparative Example 31, (S)-8-Benzyl-9-((2-(trifluoromethoxy)phenyl)sulfonyl)-3-(trifluoromethyl)-5,6,7,8,9,10-hexahydro-[1,2,4]triazolo[4,3-a][1,4]diazocine], the IC50 was greater than 2000 nM.

Regarding `O=S(=O)(c1cc(F)ccc1N1CCOCC1)N1Cc2ccccc2COCC1Cc1ccccc1` (stereo not drawn) [compound 12], the IC50 is greater than 2000 nM.

`COC[C@@H]1COCc2ccccc2CN1S(=O)(=O)c1cccc2cccnc12` [Preparative Example 16, (R)-4-(Methoxymethyl)-5-(quinolin-8-ylsulfonyl)-3,4,5,6-tetrahydro-1H-benzo[f][1,4]oxazocine]: the IC50 is greater than 2000 nM.

For the compound `O=S(=O)(c1cccc2cccnc12)N1Cc2ccccc2COC[C@H]1CC1CC1` [Preparative Example 20, (R)-4-(Cyclopropylmethyl)-5-(quinolin-8-ylsulfonyl)-3,4,5,6-tetrahydro-1H-benzo[f][1,4]oxazocine], the IC50 was less than 500 nM.

For `COc1ccc(F)cc1S(=O)(=O)N1Cc2ccccc2COCC1Cc1ccccc1` (stereo not drawn) [1/5], the IC50 was less than 500 nM.

Regarding `O=S(=O)(c1cccc2nonc12)N1Cc2ccccc2COCC1Cc1ccccc1` (stereo not drawn) [1/10], the IC50 is less than 500 nM.

Regarding `COc1ccccc1S(=O)(=O)N1Cc2ccccc2OCCC1Cc1ccccc1` (stereo not drawn) [compound 4], the IC50 is 500 to 2000 nM.

Take `O=S(=O)(c1cccc2cccnc12)N1Cc2ccccc2COC[C@H]1CN1CCCCC1` [17/2]: the IC50 is greater than 2000 nM.

Consider `O=S(=O)(c1c(Cl)ccc2nonc12)N1Cc2ccccc2COCC1Cc1ccccc1` (stereo not drawn) [1/11], for which the IC50 was 500 to 2000 nM.
